Measured values: US20100240040A1, “METHOD FOR SCREENING FOR SELECTIVE MODULATOR OF THE NF-KB PATHWAY ACTIVATION” (INSTITUT PASTEUR, priority 2007, published 2010)

Legend:
[1] = biological target: T1, CC2-LZ dimer (Biot-CC2-LZ/His-CC2-LZ) (Mus musculus, UniProt O88522); test: HTRF assay, CC2-LZ dimerization induced by ubiquitin binding; details: added to Biot-CC2-LZ/His-CC2-LZ mixture at nM concentration
T1 construct: made in house; Biot-CC2-LZ by chemical synthesis
Text: (§1) The Homogeneous Time Resolved Fluorescence (HTRF®) assay reagents anti-(His)6 monoclonal antibody labeled with XL665 (MABHis6-XL) and streptavidin-Europium cryptate (streptavidin-EuK) were purchased from CIS-Bio. The His-CC2-LZ peptide (SEQ ID NO: 30 and 31) was purified as described in Agou et al., 2004a and the biotin tagged CC2-LZ peptide (SEQ ID NO: 28 and 29) was chemically synthezised as described in Wyler et al., 2007.
All measurements of fluorescence resonance energy transfer (FRET) were performed using the microplate reader Mithras LB 940 (Berthold Technologies). HTRF® principle
In HTRF experiments, the pure His-CC2-LZ protein was labeled by anti-His-XL665 mAb and biot-CC2-LZ was labeled by streptavidin-EuK. […] Upon excitation of Europium cryptate at 320 nm, FRET occurs between these two fluorophores, and XL665 re-emits a specific long-lived fluorescence at 665 nm.
All experiments were carried out in a black microplate Greiner (200 μl) at 25° C. The excitation wavelength was 320 nm and the fluorescence emissions were measured at 620 nm and at 665 nm to normalize the specific signal. Fluorescence emission was recorded at both wavelengths after an 50 μs delay, which reduces background noise introduced by the media and the free acceptor molecules. The FRET signal is calculated using the following equation: […]

[2] = biological target: T2, Biot-CC2-LZ (Mus musculus, UniProt O88522); test: HTRF assay, complex with Biot-CC2-LZ (negative and positive controls); assay type: binding; details: each subunit of CC2-LZ at nM concentration, no ubiquitin
T2 construct: made in house; host or cells: chemical synthesis
Text: as §1
In HTRF experiments, the pure His-CC2-LZ protein was labeled by anti-His-XL665 mAb and biot-CC2-LZ was labeled by streptavidin-EuK. Dimerization of His-CC2-LZ and Biot-CC2-LZ leads the donor (Steptavidin-EuK) and the acceptor (anti-His-XL665) into close proximity. Upon excitation of Europium cryptate at 320 nm, FRET occurs between these two fluorophores, and XL665 re-emits a specific long-lived fluorescence at 665 nm.
All experiments were carried out in a black microplate Greiner (200 μl) at 25° C. The excitation wavelength was 320 nm and the fluorescence emissions were measured at 620 nm and at 665 nm to normalize the specific signal. Fluorescence emission was recorded at both wavelengths after an 50 μs delay, which reduces background noise introduced by the media and the free acceptor molecules. The FRET signal is calculated using the following equation:
ΔF=[(R−Rneg)/Rneg]*100 (1) […]

[3] = biological target: CC2-LZ (Mus musculus, UniProt O88522); test: Affinity of CC2-LZ dimerization; assay type: binding
CC2-LZ, sequence (O88522 250-339 limits assumed): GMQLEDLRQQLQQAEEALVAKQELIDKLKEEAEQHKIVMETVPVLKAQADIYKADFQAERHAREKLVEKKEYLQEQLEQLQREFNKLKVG

T1 sequence (O88522 with tags, fused parts or gaps, one chain of several): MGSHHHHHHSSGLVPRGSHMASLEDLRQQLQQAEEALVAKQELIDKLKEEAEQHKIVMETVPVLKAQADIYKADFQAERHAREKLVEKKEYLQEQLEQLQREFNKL

| Substance | FRET signal (in words) [1] | FRET signal (in words) [2] | Kd [3] |
| --- | --- | --- | --- |
| GST: GST protein alone, control | no FRET signal was detected |  |  |
| LEDLRQQLQQAEEALVAKQELIDKLKEEAEQHKIVMETVPVLKAQADIYKADFQAERHAREKLVEKKEYLQEQLEQLQREFNKL [CC2-LZ] |  | no FRET signal was observed | 22 µM |
